The text below walks through data of the supplement of paper PMC12317010.

The nature of this series: collision cross section in nitrogen (drift tube, single-field); higher = larger gas-phase ion size.
The mark [1] stands for this setting: ion type: [M+H], ion source: APCI, ion mode: Positive.
[2] abbreviates: ion type: [M+H], ion source: ESI, ion mode: Positive.
Where [3] appears, read: ion type: [M+], ion source: APCI, ion mode: Positive.
The mark [4] stands for this setting: ion type: [M+Na], ion source: ESI, ion mode: Positive.
Setting [5] is: ion type: [M-H], ion source: ESI, ion mode: Negative.
Setting [6] is: ion source: APCI, ion mode: Positive, ion type: [M]+ (permanent cation).
Setting [7] is: ion source: ESI, ion mode: Positive, ion type: [M]+ (permanent cation).

Counter-ions that a name gives are not always drawn.
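Further: chemical standards at 10 µM analysed by drift tube IMS-QTOF MS in about 3.95 torr nitrogen, mean of duplicate injections differing ≤1%, mass error below 10 ppm.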

As to `Nc1ccc(Oc2cccc(Oc3ccc(N)cc3)c2)cc1` [1,3-Phenylenedi(4-aminophenyl ether)], the “collision cross section in nitrogen” value by setting is: under setting [1], 167.2 Å²; under setting [2], 168.2 Å²; under setting [3], 177.7 Å².

Turning to `Nc1ccc(C(=O)OCCCOC(=O)c2ccc(N)cc2)cc1` [1,3-Propanediyl bis(p-aminobenzoate)], the “collision cross section in nitrogen” value under setting [4] came out at 188.2 Å² and the “collision cross section in nitrogen” value under setting [5] stood at 166.6 Å².

For the molecule `CC(C)Nc1ccc(NC(C)C)c2c1C(=O)c1ccccc1C2=O` [1,4-Bis(N-isopropylamino)anthraquinone], the “collision cross section in nitrogen” value is, setting by setting: under setting [1], 179.1 Å²; under setting [2], 179.4 Å²; under setting [3], 178.2 Å².

For the molecule `CCCCNc1ccc(NCCCC)c2c1C(=O)c1ccccc1C2=O` [1,4-Bis(butylamino)anthracene-9,10-dione], the “collision cross section in nitrogen” value is, setting by setting: under setting [1], 192.4 Å²; under setting [2], 192.8 Å²; under setting [4], 207.7 Å²; under setting [3], 190.2 Å².

As to `O=C(O)C1CCC(C(=O)O)CC1` (stereo unspecified) [1,4-Cyclohexanedicarboxylic acid], under setting [5], the “collision cross section in nitrogen” value was 136.1 Å².

Take `Nc1ccc(N)c2c1C(=O)c1ccccc1C2=O` [1,4-Diaminoanthraquinone]: the “collision cross section in nitrogen” value is, setting by setting: under setting [1], 151.4 Å²; under setting [2], 151.5 Å²; under setting [3], 147.5 Å²; under setting [5], 149.1 Å².

Consider `O=C1c2ccccc2C(=O)c2c(O)ccc(O)c21` [1,4-Dihydroxyanthracene-9,10-dione], for which the “collision cross section in nitrogen” value under setting [5] worked out at 148.9 Å².

On to `NCCCN1CCN(CCCN)CC1` [1,4-Piperazinedipropanamine], for which the “collision cross section in nitrogen” value is, setting by setting: under setting [1], 150.3 Å²; under setting [2], 150.2 Å².

For `Nc1ccc2c(S(=O)(=O)O)cccc2c1S(=O)(=O)O` [1,5-Naphthalenedisulfonic acid, 2-amino-, sodium salt (1:1)], the “collision cross section in nitrogen” value under setting [5] is 159.4 Å².

`O=S(=O)(O)c1cccc2c(S(=O)(=O)O)cccc12` [1,5-Naphthalenedisulfonic acid, disodium salt hydrate]: the “collision cross section in nitrogen” value under setting [5] stood at 156.3 Å².

For `C=CC(=O)OCCCCCCOC(=O)C=C` [1,6-Hexanediol diacrylate], the “collision cross section in nitrogen” value under setting [4] was 157.7 Å².

For the molecule `C=C(C)C(=O)OCCCCCCOC(=O)C(=C)C` [1,6-Hexanediol dimethacrylate], under setting [4], the “collision cross section in nitrogen” value is on record as 167.3 Å².

Regarding `Cn1c(=O)[nH]c2ncn(C)c2c1=O` [1,7-Dimethylxanthine], the “collision cross section in nitrogen” value is, setting by setting: under setting [1], 134.2 Å²; under setting [5], 136.8 Å².

`C=C(C)C(=O)OCCCCCCCCCCOC(=O)C(=C)C` [1,10-Decanediol dimethacrylate]: under setting [4], the “collision cross section in nitrogen” value was 184.9 Å².

For the molecule `c1cnc2c(c1)ccc1cccnc12` [1,10-Phenanthroline hydrochloride hydrate], the “collision cross section in nitrogen” value was found to be 131.8 Å² under setting [1], 131.6 Å² under setting [2] and 145.7 Å² under setting [4].

Consider `c1cnc2c(c1)ccc1cccnc12` [1,10-Phenanthroline], for which the “collision cross section in nitrogen” value was 131.3 Å² under setting [1], 132.4 Å² under setting [2] and 146 Å² under setting [4].

In the case of `Oc1ccccc1O` [1,2-Benzenediol], the “collision cross section in nitrogen” value under setting [5] amounted to 116.1 Å².

`CC(=O)c1sc(C)nc1C` [1-(2,4-Dimethyl-1,3-thiazol-5-yl)ethanone]: under setting [1], the “collision cross section in nitrogen” value was determined as 129.2 Å².

`O=C1Cc2ccccc2N1c1c(Cl)cccc1Cl` [1-(2,6-Dichlorophenyl)-2-indolinone]: the “collision cross section in nitrogen” value under setting [1] amounted to 153.5 Å².

With `CC(=O)c1ccc(O)cc1Br` [1-(2-Bromo-4-hydroxyphenyl)ethanone], the “collision cross section in nitrogen” value under setting [5] came out at 130.1 Å².

As for `CCC(=O)C=Cc1ccc(OC)cc1` [1-(4-Methoxyphenyl)-1-pentene-3-one], under setting [1], the “collision cross section in nitrogen” value is recorded as 143.3 Å².

Take `CNc1cccc2c1C(=O)c1ccccc1C2=O` [1-(Methylamino)anthraquinone]: the “collision cross section in nitrogen” value under setting [2] was 151.6 Å².

As for `Cc1ccccc1NC(=N)NC(=N)N` [1-(o-Tolyl)biguanide], the “collision cross section in nitrogen” value under setting [1] is 144.7 Å², the “collision cross section in nitrogen” value under setting [2] is 144.7 Å² and the “collision cross section in nitrogen” value under setting [4] is 148.5 Å².

Regarding `Cc1ccc2c(c1N)C(=O)c1ccccc1C2=O` [1-Amino-2-methylanthraquinone], the “collision cross section in nitrogen” value under setting [1] was 153.6 Å², the “collision cross section in nitrogen” value under setting [2] is on record as 153.2 Å², the “collision cross section in nitrogen” value under setting [3] is reported as 147.6 Å² and the “collision cross section in nitrogen” value under setting [5] came to 150.1 Å².

For the molecule `CC=Cc1ccc(OCc2ccccc2)c(OC)c1` [1-Benzyloxy-2-methoxy-4-(1-propenyl)benzene], under setting [4], the “collision cross section in nitrogen” value is given as 172.2 Å².

For `c1ccc(C[n+]2cccc3ccccc32)cc1` [1-Benzylquinolinium chloride], the “collision cross section in nitrogen” value under setting [6] stood at 147.6 Å² and the “collision cross section in nitrogen” value under setting [7] was found to be 148 Å².

With `CCCC[N+]1(C)CCCC1` [1-Butyl-1-methylpyrrolidinium chloride], the “collision cross section in nitrogen” value by setting is: under setting [6], 131.2 Å²; under setting [7], 132.4 Å².

As for `CCCCn1cc[n+](C)c1` [1-Butyl-3-methylimidazolium chloride], the “collision cross section in nitrogen” value reads like this: under setting [6], 129 Å²; under setting [7], 128.9 Å².

As to `FC(F)(F)c1ccc(Cl)cc1` [1-Chloro-4-(trifluoromethyl)benzene], the “collision cross section in nitrogen” value under setting [2] came to 142.6 Å².

`O=C1CCCN1C1CCCCC1` [1-Cyclohexylpyrrolidin-2-one]: the “collision cross section in nitrogen” value under setting [1] turned out to be 139.2 Å², the “collision cross section in nitrogen” value under setting [2] is listed as 140.3 Å² and the “collision cross section in nitrogen” value under setting [4] came to 157.7 Å².

Take `CCCCCCCCCCCCN` [1-Dodecanamine]: the “collision cross section in nitrogen” value under setting [2] is on record as 164 Å².

With `CCCCCCCCCCCCN1CCCC1=O` [1-Dodecyl-2-pyrrolidinone], the “collision cross section in nitrogen” value reads like this: under setting [2], 176.3 Å²; under setting [4], 176.6 Å².

In the case of `CCN1CCCC1=O` [1-Ethyl-2-pyrrolidinone], under setting [1], the “collision cross section in nitrogen” value was 121.7 Å².

For `On1nnc2ccccc21` [1-Hydroxybenzotriazole], the “collision cross section in nitrogen” value runs as follows: under setting [1], 124.9 Å²; under setting [2], 125.9 Å²; under setting [5], 122.6 Å².

With `Oc1ccc2ccc3cccc4ccc1c2c34` [1-Hydroxypyrene], the “collision cross section in nitrogen” value under setting [3] is given as 141.9 Å² and the “collision cross section in nitrogen” value under setting [5] is listed as 146.2 Å².

For `Cn1c(=S)[nH]c2ccccc21` [1-Methyl-1,3-dihydro-2H-benzimidazole-2-thione], the “collision cross section in nitrogen” value runs as follows: under setting [1], 130.7 Å²; under setting [2], 130.9 Å²; under setting [3], 127.9 Å²; under setting [5], 131.4 Å².

For `CNC(=N[N+](=O)[O-])NCC1CCOC1` (stereo unspecified) [1-Methyl-2-nitro-3-((tetrahydrofuran-3-yl)methyl)guanidine], the “collision cross section in nitrogen” value under setting [4] worked out at 150.6 Å² and the “collision cross section in nitrogen” value under setting [5] is given as 148.7 Å².

`Cn1cc(-c2ccccc2)c(=O)c(-c2cccc(C(F)(F)F)c2)c1` [1-Methyl-3-phenyl-5-(3-(trifluoromethyl)phenyl)-4-pyridone]: the “collision cross section in nitrogen” value reads like this: under setting [1], 179.6 Å²; under setting [2], 179.8 Å²; under setting [4], 187.5 Å²; under setting [5], 178.9 Å².

Consider `CCCCCCCCCCCC(=O)OCC(O)CO` (stereo unspecified) [1-Monolaurin], for which the “collision cross section in nitrogen” value under setting [4] is given as 176.3 Å².

As to `Nc1cccc2ccccc12` [1-Naphthylamine], the “collision cross section in nitrogen” value under setting [2] worked out at 127.6 Å² and the “collision cross section in nitrogen” value under setting [3] worked out at 125 Å².

Turning to `CCCCCCCCN1CCCC1=O` [1-Octyl-2-pyrrolidone], the “collision cross section in nitrogen” value was 158.6 Å² under setting [1] and 158.5 Å² under setting [2].

As for `O=C1C=CC(=O)N1c1ccccc1` [1-Phenyl-1H-pyrrole-2,5-dione], under setting [2], the “collision cross section in nitrogen” value was determined as 135.3 Å².

For `CC1=NN(c2ccccc2)C(=O)C1` [1-Phenyl-3-methyl-5-pyrazolone], the “collision cross section in nitrogen” value is, setting by setting: under setting [2], 137.7 Å²; under setting [5], 137.8 Å².

Turning to `OCCN1CCNCC1` [1-Piperazineethanol], the “collision cross section in nitrogen” value amounted to 124.7 Å² under setting [1] and 125.6 Å² under setting [2].

On to `CC(=O)NCCCS(=O)(=O)O` [1-Propanesulfonic acid, 3-(acetylamino)-, calcium salt (2:1)], for which the “collision cross section in nitrogen” value under setting [5] came to 134.9 Å².

Turning to `CC(O)CN(CCCN(C)C)CCCN(C)C` (stereo unspecified) [1-{Bis[3-(dimethylamino)propyl]amino}propan-2-ol], the “collision cross section in nitrogen” value runs as follows: under setting [1], 157.5 Å²; under setting [2], 158.1 Å²; under setting [4], 158.4 Å².

On to `c1nc[nH]n1` [1H-1,2,4-Triazole], for which the “collision cross section in nitrogen” value under setting [5] is given as 107.7 Å².

Regarding `O=C1NC(=O)c2cccc3cccc1c23` [1H-Benzo[de]isoquinoline-1,3(2H)-dione], the “collision cross section in nitrogen” value under setting [5] turned out to be 140.8 Å².

`N=C1NC(=N)c2ccccc21` [1H-Isoindole-1,3(2H)-diimine]: under setting [2], the “collision cross section in nitrogen” value is 126.4 Å².

As to `O=C1OC2(c3ccccc31)c1cc(Br)c(O)c(Br)c1Oc1c2cc(Br)c(O)c1Br` [2',4',5',7'-Tetrabromofluorescein], the “collision cross section in nitrogen” value stood at 204.7 Å² under setting [2] and 208.7 Å² under setting [5].

As to `CCCC(=O)c1cc(O)c(O)cc1O` [2',4',5'-Trihydroxybutyrophenone], the “collision cross section in nitrogen” value under setting [5] was found to be 141.3 Å².

As to `O=c1cccc[nH]1` [2(1H)-Pyridinone], under setting [2], the “collision cross section in nitrogen” value worked out at 115.5 Å².

For `OCCN(CCO)CCN(CCO)CCO` [2,2',2'',2'''-(1,2-Ethanediyldinitrilo)tetrakisethanol], the “collision cross section in nitrogen” value worked out at 149.2 Å² under setting [1], 149.6 Å² under setting [2] and 151.1 Å² under setting [4].

On to `O=C(c1ccc(O)cc1O)c1ccc(O)cc1O` [2,2',4,4'-Tetrahydroxybenzophenone], for which the “collision cross section in nitrogen” value under setting [5] amounted to 152.3 Å².
